Each block holds one molecule with its values, some of them ahead of it.
Assays:
[1] = target: T1, TRAF2 and NCK-interacting protein kinase (Homo sapiens, UniProt Q9UKE5); assay: Inhibition of recombinant TNIK (unknown origin) using LRRKtide as substrate at 10 uM after 1 hr in presence of 30 uM ATP
Target sequence in this assay (Q9UKE5 whole entry, looked up): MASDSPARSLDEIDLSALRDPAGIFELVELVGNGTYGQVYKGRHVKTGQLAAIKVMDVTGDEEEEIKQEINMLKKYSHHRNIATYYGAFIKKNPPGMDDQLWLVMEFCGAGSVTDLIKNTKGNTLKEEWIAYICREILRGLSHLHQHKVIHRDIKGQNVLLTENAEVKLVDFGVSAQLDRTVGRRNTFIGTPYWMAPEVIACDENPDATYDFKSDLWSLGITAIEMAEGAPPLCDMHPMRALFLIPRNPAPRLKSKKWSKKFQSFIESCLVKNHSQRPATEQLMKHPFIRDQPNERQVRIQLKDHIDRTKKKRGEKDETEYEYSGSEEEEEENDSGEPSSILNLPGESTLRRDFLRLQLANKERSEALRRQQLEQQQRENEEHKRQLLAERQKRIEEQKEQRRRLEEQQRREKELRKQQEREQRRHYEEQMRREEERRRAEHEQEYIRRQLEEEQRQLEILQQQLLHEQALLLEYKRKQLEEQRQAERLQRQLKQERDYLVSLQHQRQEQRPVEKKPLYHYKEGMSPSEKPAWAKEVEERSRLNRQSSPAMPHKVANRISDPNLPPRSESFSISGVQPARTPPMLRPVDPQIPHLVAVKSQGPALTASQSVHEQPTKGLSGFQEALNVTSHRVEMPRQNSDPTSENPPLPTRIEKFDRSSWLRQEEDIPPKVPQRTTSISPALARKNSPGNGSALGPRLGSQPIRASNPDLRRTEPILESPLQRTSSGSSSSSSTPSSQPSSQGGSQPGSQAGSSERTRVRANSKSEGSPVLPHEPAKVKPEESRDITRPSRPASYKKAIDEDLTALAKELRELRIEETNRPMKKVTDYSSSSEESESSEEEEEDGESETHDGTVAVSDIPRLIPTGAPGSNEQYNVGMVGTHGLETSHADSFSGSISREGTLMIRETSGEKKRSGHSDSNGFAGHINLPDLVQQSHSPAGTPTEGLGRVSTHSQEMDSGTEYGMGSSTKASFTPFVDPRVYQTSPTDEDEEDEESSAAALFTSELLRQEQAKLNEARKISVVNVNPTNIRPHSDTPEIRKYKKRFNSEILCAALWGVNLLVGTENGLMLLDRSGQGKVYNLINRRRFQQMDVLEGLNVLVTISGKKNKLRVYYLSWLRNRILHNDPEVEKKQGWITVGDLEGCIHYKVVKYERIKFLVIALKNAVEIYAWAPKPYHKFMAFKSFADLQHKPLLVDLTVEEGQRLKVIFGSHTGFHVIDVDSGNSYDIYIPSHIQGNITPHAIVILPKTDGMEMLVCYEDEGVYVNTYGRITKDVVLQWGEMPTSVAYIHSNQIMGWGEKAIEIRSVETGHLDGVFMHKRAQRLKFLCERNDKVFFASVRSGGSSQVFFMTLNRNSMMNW

[2] = target: T1, TRAF2 and NCK-interacting protein kinase; assay: Inhibition of recombinant TNIK (unknown origin) using LRRKtide as substrate after 1 hr in presence of 30 uM ATP
Target sequence in this assay (Q9UKE5 whole entry): as the sequence (Q9UKE5 whole entry, looked up) above

NCI-H1703 = assay: Cytotoxicity against human NCI-H1703 cells transfected with lentiviral vector 7TFP assessed as cell viability at 10 uM after 72 hrs by ATPlite assay; assay type: cell-based; conditions: nci-h1703, 72 h
[3] = target: T1, TRAF2 and NCK-interacting protein kinase; assay: Competitive inhibition of recombinant TNIK (unknown origin) using LRRKtide as substrate after 1 hr in presence of 3 uM ATP
Target sequence in this assay (Q9UKE5 whole entry): as the sequence (Q9UKE5 whole entry, looked up) above

[4] = target: T1, TRAF2 and NCK-interacting protein kinase; assay: Competitive inhibition of recombinant TNIK (unknown origin) using LRRKtide as substrate after 1 hr in presence of 30 uM ATP
Target sequence in this assay (Q9UKE5 whole entry): as the sequence (Q9UKE5 whole entry, looked up) above

[5] = target: T1, TRAF2 and NCK-interacting protein kinase; assay: Competitive inhibition of recombinant TNIK (unknown origin) using LRRKtide as substrate after 1 hr in presence of 300 uM ATP
Target sequence in this assay (Q9UKE5 whole entry): as the sequence (Q9UKE5 whole entry, looked up) above

[6] = target: ALK tyrosine kinase receptor (Homo sapiens) (UniProt Q9UM73); assay: Inhibition of human ALK using IGF-1Rtide as substrate at 10 uM after 2 hrs in presence of 30 uM ATP
[7] = target: T2, Aurora kinase A (Homo sapiens) (UniProt O14965); assay: Inhibition of human AURA using kemptide as substrate at 10 uM after 1 hr in presence of 30 uM ATP
T2 sequence (whole entry): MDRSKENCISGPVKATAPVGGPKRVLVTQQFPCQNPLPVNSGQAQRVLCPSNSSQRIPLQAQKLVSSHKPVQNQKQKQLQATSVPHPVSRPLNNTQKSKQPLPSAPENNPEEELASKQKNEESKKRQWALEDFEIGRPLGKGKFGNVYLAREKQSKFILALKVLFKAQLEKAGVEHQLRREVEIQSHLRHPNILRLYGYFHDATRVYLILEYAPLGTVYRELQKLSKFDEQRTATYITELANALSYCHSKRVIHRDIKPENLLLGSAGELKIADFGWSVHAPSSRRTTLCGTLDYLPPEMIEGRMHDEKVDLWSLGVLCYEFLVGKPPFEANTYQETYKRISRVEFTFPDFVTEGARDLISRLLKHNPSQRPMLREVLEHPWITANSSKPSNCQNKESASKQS

[8] = target: Tyrosine-protein kinase BTK (Homo sapiens) (UniProt Q06187); assay: Inhibition of human BTK using srctide as substrate at 10 uM after 1 hr in presence of 30 uM ATP
Tyrosine-protein kinase BTK (Homo sapiens), sequence (Q06187 whole entry): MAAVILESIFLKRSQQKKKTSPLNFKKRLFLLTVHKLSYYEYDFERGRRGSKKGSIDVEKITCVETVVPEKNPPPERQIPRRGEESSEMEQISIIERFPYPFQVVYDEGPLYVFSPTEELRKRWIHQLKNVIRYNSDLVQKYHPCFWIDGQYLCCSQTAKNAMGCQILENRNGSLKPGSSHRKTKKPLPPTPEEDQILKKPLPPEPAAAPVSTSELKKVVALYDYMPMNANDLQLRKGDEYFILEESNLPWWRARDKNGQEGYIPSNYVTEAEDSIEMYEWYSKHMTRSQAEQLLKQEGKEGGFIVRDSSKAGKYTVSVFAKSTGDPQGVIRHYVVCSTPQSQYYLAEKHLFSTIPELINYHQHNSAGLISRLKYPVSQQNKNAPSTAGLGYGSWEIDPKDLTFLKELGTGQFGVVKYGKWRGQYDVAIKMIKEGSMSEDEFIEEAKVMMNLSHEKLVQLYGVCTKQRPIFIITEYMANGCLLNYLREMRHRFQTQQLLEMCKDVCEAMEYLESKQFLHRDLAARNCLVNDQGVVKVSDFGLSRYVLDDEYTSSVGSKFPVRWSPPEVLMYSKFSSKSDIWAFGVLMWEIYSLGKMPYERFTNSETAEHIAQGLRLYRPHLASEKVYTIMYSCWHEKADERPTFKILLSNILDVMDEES

[9] = target: Epidermal growth factor receptor (Homo sapiens) (UniProt P00533); assay: Inhibition of human EGFR using srctide as substrate at 10 uM after 1 hr in presence of 30 uM ATP
[10] = target: Fibroblast growth factor receptor 1 (Homo sapiens) (UniProt P11362); assay: Inhibition of human FGFR1 using IGF-1Rtide as substrate at 10 uM after 1 hr in presence of 30 uM ATP
Fibroblast growth factor receptor 1 (Homo sapiens), sequence (P11362 22-822 limits assumed): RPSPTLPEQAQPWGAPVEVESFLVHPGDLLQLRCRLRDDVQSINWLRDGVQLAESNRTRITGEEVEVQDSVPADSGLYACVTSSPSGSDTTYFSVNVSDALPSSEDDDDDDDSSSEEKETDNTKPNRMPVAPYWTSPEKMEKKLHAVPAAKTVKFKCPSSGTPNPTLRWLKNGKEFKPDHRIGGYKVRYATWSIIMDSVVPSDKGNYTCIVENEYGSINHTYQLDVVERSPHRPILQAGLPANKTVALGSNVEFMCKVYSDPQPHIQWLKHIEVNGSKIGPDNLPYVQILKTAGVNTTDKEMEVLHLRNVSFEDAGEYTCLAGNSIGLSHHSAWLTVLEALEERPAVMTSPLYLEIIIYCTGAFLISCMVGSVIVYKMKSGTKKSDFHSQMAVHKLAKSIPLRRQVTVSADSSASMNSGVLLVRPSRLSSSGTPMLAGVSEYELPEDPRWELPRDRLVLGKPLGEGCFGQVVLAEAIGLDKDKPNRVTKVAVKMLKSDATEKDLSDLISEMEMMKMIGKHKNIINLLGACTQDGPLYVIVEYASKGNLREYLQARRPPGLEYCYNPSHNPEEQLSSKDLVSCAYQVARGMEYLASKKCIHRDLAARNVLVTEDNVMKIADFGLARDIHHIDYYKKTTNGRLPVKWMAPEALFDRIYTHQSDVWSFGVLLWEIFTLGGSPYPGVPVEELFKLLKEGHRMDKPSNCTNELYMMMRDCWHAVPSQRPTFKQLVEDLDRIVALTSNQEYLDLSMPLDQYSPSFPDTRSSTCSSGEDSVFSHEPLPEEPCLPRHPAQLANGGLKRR

[11] = target: Fibroblast growth factor receptor 2 (Homo sapiens) (UniProt P21802); assay: Inhibition of human FGFR2 using IGF-1Rtide as substrate at 10 uM after 1 hr in presence of 30 uM ATP
Fibroblast growth factor receptor 2 (Homo sapiens), sequence (P21802 22-821 limits assumed): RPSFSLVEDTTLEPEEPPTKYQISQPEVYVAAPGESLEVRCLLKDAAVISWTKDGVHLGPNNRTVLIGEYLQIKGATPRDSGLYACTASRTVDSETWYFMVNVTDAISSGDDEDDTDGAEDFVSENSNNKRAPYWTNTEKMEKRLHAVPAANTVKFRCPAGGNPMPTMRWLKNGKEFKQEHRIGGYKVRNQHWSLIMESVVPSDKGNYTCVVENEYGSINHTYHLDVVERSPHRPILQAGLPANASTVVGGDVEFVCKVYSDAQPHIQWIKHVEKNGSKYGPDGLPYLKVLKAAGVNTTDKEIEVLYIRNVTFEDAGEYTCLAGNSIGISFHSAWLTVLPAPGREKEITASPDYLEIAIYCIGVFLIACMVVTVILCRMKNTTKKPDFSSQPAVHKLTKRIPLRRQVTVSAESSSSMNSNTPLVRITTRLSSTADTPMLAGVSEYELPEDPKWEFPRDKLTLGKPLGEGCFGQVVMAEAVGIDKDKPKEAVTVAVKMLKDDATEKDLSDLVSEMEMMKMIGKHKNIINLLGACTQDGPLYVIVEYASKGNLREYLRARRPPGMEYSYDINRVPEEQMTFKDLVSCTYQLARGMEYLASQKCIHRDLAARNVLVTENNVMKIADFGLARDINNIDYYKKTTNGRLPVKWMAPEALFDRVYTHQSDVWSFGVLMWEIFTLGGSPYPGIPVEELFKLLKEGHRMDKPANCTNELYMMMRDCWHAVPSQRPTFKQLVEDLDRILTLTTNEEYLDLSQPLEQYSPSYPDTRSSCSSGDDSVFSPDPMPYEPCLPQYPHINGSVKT

[12] = target: Receptor-type tyrosine-protein kinase FLT3 (Homo sapiens) (UniProt P36888); assay: Inhibition of human FLT3 using srctide as substrate at 10 uM after 1 hr in presence of 30 uM ATP
[13] = target: Glycogen synthase kinase-3 (Homo sapiens) (UniProt P49840+P49841); assay: Inhibition of human GSK3 using GSM as substrate at 10 uM after 1.5 hrs in presence of 30 uM ATP; assay type: protein assay
Glycogen synthase kinase-3 (Homo sapiens), sequence (P49840 whole entry, looked up): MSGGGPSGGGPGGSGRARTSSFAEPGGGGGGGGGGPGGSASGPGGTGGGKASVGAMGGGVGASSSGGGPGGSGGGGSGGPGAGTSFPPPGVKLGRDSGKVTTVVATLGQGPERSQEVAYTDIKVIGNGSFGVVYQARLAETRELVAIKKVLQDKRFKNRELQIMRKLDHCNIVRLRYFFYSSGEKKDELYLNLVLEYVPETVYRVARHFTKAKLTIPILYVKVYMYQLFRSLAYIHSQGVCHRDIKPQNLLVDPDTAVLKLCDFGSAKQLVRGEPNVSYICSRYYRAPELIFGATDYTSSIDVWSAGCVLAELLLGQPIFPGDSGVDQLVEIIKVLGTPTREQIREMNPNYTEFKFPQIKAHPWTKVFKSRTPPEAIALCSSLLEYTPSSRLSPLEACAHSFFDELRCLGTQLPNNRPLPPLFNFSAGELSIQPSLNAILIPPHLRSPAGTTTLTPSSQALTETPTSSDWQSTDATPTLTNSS
Glycogen synthase kinase-3 (Homo sapiens), sequence (P49841 whole entry, looked up): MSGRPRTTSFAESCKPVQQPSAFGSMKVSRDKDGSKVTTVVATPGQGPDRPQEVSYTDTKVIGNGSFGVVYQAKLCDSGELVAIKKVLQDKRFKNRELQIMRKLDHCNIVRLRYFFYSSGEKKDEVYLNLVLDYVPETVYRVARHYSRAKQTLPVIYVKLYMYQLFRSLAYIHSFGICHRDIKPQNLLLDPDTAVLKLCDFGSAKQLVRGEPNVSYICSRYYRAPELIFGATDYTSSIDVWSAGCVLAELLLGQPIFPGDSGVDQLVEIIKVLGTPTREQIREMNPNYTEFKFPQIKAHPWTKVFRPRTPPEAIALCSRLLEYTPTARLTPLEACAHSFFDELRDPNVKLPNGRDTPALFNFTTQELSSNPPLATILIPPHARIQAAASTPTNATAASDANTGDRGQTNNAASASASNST

[14] = target: Insulin-like growth factor 1 receptor (Homo sapiens) (UniProt P08069); assay: Inhibition of human IGF1R at 10 uM in presence of 30 uM ATP
[15] = target: Tyrosine-protein kinase JAK2 (Homo sapiens) (UniProt O60674); assay: Inhibition of human JAK2 using IGF-1Rtide as substrate at 10 uM after 1 hr in presence of 30 uM ATP
[16] = target: Vascular endothelial growth factor receptor 2 (Homo sapiens) (UniProt P35968); assay: Inhibition of human KDR using srctide as substrate at 10 uM after 1 hr in presence of 30 uM ATP
[17] = target: Platelet-derived growth factor receptor beta (Homo sapiens) (UniProt P09619); assay: Inhibition of human PDGFRbeta using srctide as substrate at 10 uM after 1 hr in presence of 30 uM ATP
[18] = target: Phosphatidylinositol 4,5-bisphosphate 3-kinase catalytic subunit alpha isoform (Homo sapiens) (UniProt P42336); assay: Inhibition of human PI3Kalpha using PIP2 as substrate at 10 uM after 1 hr in presence of 30 uM ATP
[19] = target: Serine/threonine-protein kinase pim-1 (Homo sapiens) (UniProt P11309); assay: Inhibition of human PIM1 using S6K as substrate at 10 uM after 1 hr in presence of 30 uM ATP
Serine/threonine-protein kinase pim-1 (Homo sapiens), sequence (P11309 whole entry, looked up): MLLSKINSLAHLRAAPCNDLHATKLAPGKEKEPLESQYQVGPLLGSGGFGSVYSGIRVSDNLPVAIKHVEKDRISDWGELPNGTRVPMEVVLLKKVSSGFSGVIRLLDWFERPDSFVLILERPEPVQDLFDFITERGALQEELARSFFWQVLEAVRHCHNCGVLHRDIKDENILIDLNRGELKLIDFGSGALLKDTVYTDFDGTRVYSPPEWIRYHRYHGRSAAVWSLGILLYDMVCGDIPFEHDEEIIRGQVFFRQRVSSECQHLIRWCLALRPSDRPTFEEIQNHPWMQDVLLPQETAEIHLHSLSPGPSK

[20] = target: Tyrosine-protein kinase SYK (Homo sapiens) (UniProt P43405); assay: Inhibition of human SYK using srctide as substrate at 10 uM after 1 hr in presence of 30 uM ATP

Compound: CN1CCN(c2ccc(NC(=O)c3cccc(Cl)c3)cc2)CC1
- inhibition [1]: 45%

Compound: Cc1ccccc1C(=O)N1CCN(c2ccc(NC(=O)c3ccc(-c4ccc(Cl)cc4)o3)cc2)CC1
- inhibition [1]: 12.9%

Compound: O=C(Nc1cccc(NC(=O)c2ccc(Cl)cc2Cl)c1)c1ccc(-c2cccc([N+](=O)[O-])c2)o1
- inhibition [1]: 16.8%

Compound: CN(C)c1ccc(NC(=O)c2cc3ccccc3o2)cc1
- inhibition [1]: 39%

Compound: CC(C)(C)c1ccc(/C=C/C(=O)Nc2ccccc2C(N)=O)cc1
- inhibition [1]: 63%
- IC50 [2]: 2740 nM

Compound: COc1ccc(C(=O)/C=C/Nc2ccc(C)c(C)c2)cc1
- inhibition [1]: 32%

Compound: O=C1[C@H](Cc2ccc(O)cc2)N2C(=O)CCN(C(=O)NCc3ccccc3)[C@H]2CN1Cc1cccc2ccccc12
- Activity (NCI-H1703): Non-toxic

Compound: CN1CCN(c2ccc3nc(-c4c(N)c5c(F)cccc5[nH]c4=O)[nH]c3c2)CC1 [DOVITINIB]
- Activity (NCI-H1703): Toxic

Compound: Cc1cc(C(=O)Nc2cccc(S(=O)(=O)N3CCOCC3)c2)sc1-c1ccccc1
- inhibition [1]: -4.9%

Compound: CNS(=O)(=O)c1ccc(NC(=O)c2cc(C)c(-c3ccccc3)s2)cc1
- inhibition [1]: 72.8%

Compound: CCC(=O)N1CCN(c2ccc(NC(=O)c3cc4ccccc4o3)cc2)CC1
- inhibition [1]: 46%

Compound: O=C(Nc1cc(Cl)cc(Cl)c1)c1ccc(-c2ccc([N+](=O)[O-])cc2)o1
- inhibition [1]: 8.9%

Compound: CN1CCN(c2ccc(NC(=O)c3ccc(-c4cc(Cl)ccc4Cl)o3)cc2)CC1
- inhibition [1]: 94%
- IC50 [2]: 850 nM
- IC50 [3]: 394 nM
- IC50 [4]: 849 nM
- IC50 [5]: 6180 nM
- inhibition [6]: 17.4%
- inhibition [7]: 19.5%
- inhibition [8]: 4.3%
- inhibition [9]: 9.3%
- inhibition [10]: 21.6%
- inhibition [11]: 54.8%
- inhibition [12]: 93.8%
- inhibition [13]: 20.7%
- inhibition [14]: 3.4%
- inhibition [15]: 3.5%
- inhibition [16]: 64.9%
- inhibition [17]: 75.7%
- inhibition [18]: 11.7%
- inhibition [19]: 46.9%
- inhibition [20]: 34.9%
- Activity (NCI-H1703): Non-toxic

Compound: Cc1c(Cl)cccc1-c1ccc(C(=O)Nc2ccc(S(N)(=O)=O)cc2)o1
- inhibition [1]: 76.4%
- IC50 [2]: 260 nM
- inhibition [6]: 18.4%
- inhibition [7]: 17.4%
- inhibition [8]: -2.3%
- inhibition [9]: 51.7%
- inhibition [10]: 5.2%
- inhibition [11]: 32.4%
- inhibition [12]: 27%
- inhibition [13]: 17.3%
- inhibition [14]: 7.7%
- inhibition [15]: 23.7%
- inhibition [16]: 0.1%
- inhibition [17]: 13.8%
- inhibition [19]: 24%
- inhibition [20]: 15.3%
- Activity (NCI-H1703): Non-toxic

Compound: O=C(Nc1nnc(/C=C/c2ccccc2)s1)c1ccco1
- inhibition [1]: 70%
- IC50 [2]: 3570 nM

Compound: CC[C@@H]1CCc2c(sc(NC(=O)Nc3ccccc3)c2C(N)=O)C1
- inhibition [1]: 79%
- IC50 [2]: 10300 nM

Compound: Cc1cc([N+](=O)[O-])ccc1NC(=O)c1ccc(-c2cccc(Cl)c2Cl)o1
- inhibition [1]: 4.9%

Compound: Cc1ccc(NC=C2C(=O)c3ccccc3C2=O)cc1C
- inhibition [1]: 43%

The remaining lines, values ahead:

- inhibition [1]: 42%
Compound: O=C(NNC(=O)c1cc2ccccc2cc1O)NC1CCCCC1

- inhibition [1]: 23.1%
Compound: CC(=O)Nc1ccc(NC(=O)c2ccc(-c3ccc(Cl)c(Cl)c3)o2)cc1

- inhibition [1]: 22.3%
Compound: Cc1cc([N+](=O)[O-])ccc1-c1ccc(C(=O)Nc2cccc(Cl)c2N2CCOCC2)o1

- inhibition [1]: 18.7%
Compound: O=C(Nc1ccccc1Cl)c1ccc(-c2ccc(Cl)cc2)o1

- inhibition [1]: 61.7%
Compound: Cc1cc(C(=O)Nc2ccccc2C(N)=O)sc1-c1ccccc1

- inhibition [1]: 4.1%
Compound: CC(C)C(=O)Nc1cccc(NC(=O)c2ccc(-c3ccc(Cl)cc3)o2)c1

- inhibition [1]: 40%
Compound: Cc1ccc(-c2cc(C(=O)Nc3ccncc3)no2)cc1

- inhibition [1]: 60.4%
Compound: Cc1cc(C(=O)Nc2ccc(C(=O)N3CCOCC3)cc2)sc1-c1ccccc1

- inhibition [1]: 72%
- IC50 [2]: 3510 nM
Compound: O=C(Nc1ccc(Br)cc1)Nc1ccc(CN2CCCC2)cc1

From ChEMBL document CHEMBL3751797, “Discovery of TRAF-2 and NCK-interacting kinase (TNIK) inhibitors by ligand-based virtual screening methods” (Medchemcomm, 2015)
